Values joined by “and” are separate entries in the source; they are usually repeats but may differ in a detail not shown here. Identical values can stand only once.
Legend:
[1] = Conversion of CGP 4540 to mutagenic metabolite by route; type: in vivo; conditions: oral vs injected intramuscularly or intravenously
[2] = test system: Salmonella typhimurium Strain TA 100; experiment: Urine analysis (Ames test) of mice treated with CGP 4540, strain TA 100, with/without S9;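 also: mouse urine gathered in 24 h periods after drug dosing, 0.1 and 0.25 ml aliquots plated on the bacteria, plates counted following 48 h at 37 °C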
Description: Mice are placed into a metabolism cage and control urines are collected on ice for 24 hours. These animals are then treated with the drug and urine is collected in refrigerated containers for the two subsequent 24-hour periods. The volume of the urine is measured and the urine is stored at -80° C. until assayed.
Urine specimens are thawed, centrifuged at 10,000×g for 15 minutes and sterilized by filtration through a 0.22 μm Millipore filter. Effects of 0.1 and 0.25 ml aliquots are tested on strains TA 100 with and without added S9 microsomal fraction. Plates are counted after incubation at 37° C. for 48 hours. The dose response at these two urine concentrations is used to calculate the number of revertants induced by the total volume of urine excreted in 24 hours. […] Aliquots of this mixture are tested after adjustment to pH 7 in the absence and the presence of the S9 fraction.
The mice were infected with S. typhimurium TA 100 as the test strain and the CGP 4540 was formulated as in Example 1. […] Three control mice were employed.

[3] = test system: Schistosoma mansoni; experiment: Antischistosomal activity in infected mice; type: in vivo
[4] = test system: Salmonella typhimurium; experiment: Mutagenic activity of urines of treated germ-free and conventional rats (Ames); type: in vivo; conditions: for Revertants in excess of controls excreted in 24 hrs: 250 mg/kg oral
Description: Urine analysis (referred to above as the "Ames" test).
The schistosomicide 4-nitro-4'-[…] diphenylamine (CGP 4540) was orally administered to two germ-free rats and two conventional male Fisher rats weighing 220-240 grams. Urines from the thus treated animals were analyzed for mutagenic activity and assays were carried out as described in Journal of Pharmacology and Experimental Therapeutics, 200, 1-9 (1977) using the methodology of Ames et al (Mutat. Res., 31, 347-364). The mutagenic activities of the urines were determined in both the absence and presence of S9 (hepatic microsomal) fractions of phenobarbital pretreated rats (Ames et al, Proc. Nat. Acad. Sci, U.S.A., 71, 737-741, 1974) without and with preincubation with β-glucuronidase.
For test purposes, the isothiocyanate derivative was dissolved at 40° C. in a polyethoxylated vegetable oil (Emulphor El 620) to a final concentration of 50 mg/ml. Following sterilization by means of millipore filtration the mixture was administered by gastric intubation to two germ-free and two conventional male Fisher rats (weighing 220 to 240 gms) at a dose of 250 mg/kg of the isothiocyanate. One germ-free and one conventional rat that were given the filtered vehicle without the drug served as controls. The urines of each animal were collected for a period of 48 hours subsequent to administration of the drug or the filtered vehicle.
The germ-free rats used in the tests were kept in Tresder type plastic isolators. After administration of the isothiocyanate or the vehicle the germ-free rats were transferred into individual metabolism cages in the isolators.
The mutagenic activity determined for the test animals, expressed in terms of revertants in excess of the controls, is shown below: […]

[5] = test system: bile ducts and the liver; experiment: Acute hepatotoxic effects; type: in vivo
Excerpt: A further advantage of the invention is that, at least in some instances, acute hepatotoxic effects resulting from use of an antischistosomal or other drug and caused by a metabolic product, may be prevented. […] Accordingly, in this particular situation the administration of the antibacterial agent not only prevents the mutagenic effects of a metabolic product of the intestinal bacterial flora but also the acute hepatotoxic effects which might otherwise be encountered.

[6] = Thin layer chromatography of urine extracts for mutagenic metabolite; type: in vivo, rats
[7] = test system: Schistosoma mansoni; experiment: Antischistosomal activity in infected mice; type: in vivo; remark: listed apart in the source
Description: Six groups of test mice, infected with Schistosoma mansoni, were treated as follows:
(1) a single dose of formulated CGP 4540 (10 mg/kg) with no antibiotic administered;
(2) single dose of formulated CGP 4540 as in (1) but preceded by 100 mg/kg of erythromycin (base);
(4) same as (1) but using a CGP 4540 dosage of 15 mg/kg;
(5) same as (4) but preceded by a 100 mg/kg dose of erythromycin; and
All drugs were administered by gastric intubation.

[8] = test system: S. typhimurium TA 100
[9] = succinylsulfathiazole 1 g/kg once daily for 3 days before CGP 4540
[10] = CGP 4540 10 mg/kg single dose, no antibiotic, 196 mice, 10 mg/kg
[11] = CGP 4540 10 mg/kg, bacitracin 440 mg/kg
[12] = CGP 4540 10 mg/kg, erythromycylamine 100 mg/kg
[13] = CGP 4540 10 mg/kg, succinylsulfathiazole 1 g/kg + bacitracin 220 mg/kg
[14] = CGP 4540 15 mg/kg, erythromycin (base) 100 mg/kg
[15] = CGP 4540 15 mg/kg, erythromycylamine 100 mg/kg
[16] = CGP 4540 15 mg/kg, no antibiotic
[17] = CGP 4540 20 mg/kg, bacitracin 440 mg/kg
[18] = CGP 4540 20 mg/kg, no antibacterial
[19] = CGP 4540 20 mg/kg, succinylsulfathiazole 1 g/kg + bacitracin 220 mg/kg
[20] = CGP 4540 10 mg/kg, erythromycin (base) 100 mg/kg

With `O=[N+]([O-])c1ccc(Nc2ccc(N=C=S)cc2)cc1` [CGP 4540] the “Increase in conversion to mutagenic metabolite, oral vs intramuscular or intravenous” value [1] was 50%, the “Urine revertants in excess of controls” value ([2]; CGP 4540 100 mg/kg oral, no pretreatment, day 1, +S9) was 239 revertants per total 24 hour u and the “Urine revertants in excess of controls” value ([2]; CGP 4540 100 mg/kg oral, no pretreatment, day 1, no S9) was 56 revertants per total 24 hour u. For the same compound, the “Urine revertants in excess of controls” value ([2]; CGP 4540 100 mg/kg oral, no pretreatment, day 2, +S9) was 30 revertants per total 24 hour u, the “Urine revertants in excess of controls” value ([2]; CGP 4540 100 mg/kg oral, no pretreatment, day 2, no S9) was 11 revertants per total 24 hour u and the “Urine revertants in excess of controls” value ([2]; CGP 4540 100 mg/kg oral, succinylsulfathiazole 1 g/kg, day 1, +S9) was 108 revertants per total 24 hour u. The “Urine revertants in excess of controls” value ([2]; CGP 4540 100 mg/kg oral, succinylsulfathiazole 1 g/kg, day 1, no S9) was 37 revertants per total 24 hour u, the “Urine revertants in excess of controls” value ([2]; CGP 4540 100 mg/kg oral, succinylsulfathiazole 1 g/kg, day 2, +S9) was 12 revertants per total 24 hour u and the “Urine revertants in excess of controls” value ([2]; CGP 4540 100 mg/kg oral, succinylsulfathiazole 1 g/kg, day 2, no S9) was 0 revertants per total 24 hour u. The “Urine revertants in excess of controls” value ([2]; CGP 4540 250 mg/kg oral, bacitracin 220 mg/kg, day 1, +S9) was 96 revertants per total 24 hour u, the “Urine revertants in excess of controls” value ([2]; CGP 4540 250 mg/kg oral, bacitracin 220 mg/kg, day 1, no S9) was 31 revertants per total 24 hour u and the “Urine revertants in excess of controls” value ([2]; CGP 4540 250 mg/kg oral, bacitracin 220 mg/kg, day 2, +S9) was 10 revertants per total 24 hour u. The “Urine revertants in excess of controls” value ([2]; CGP 4540 250 mg/kg oral, bacitracin 220 mg/kg, day 2, no S9) was 4 revertants per total 24 hour u, the “Urine revertants in excess of controls” value ([2]; CGP 4540 250 mg/kg oral, bacitracin 440 mg/kg, day 1, +S9) was 0 revertants per total 24 hour u and the “Urine revertants in excess of controls” value ([2]; CGP 4540 250 mg/kg oral, bacitracin 440 mg/kg, day 1, no S9) was 0 revertants per total 24 hour u. For the same compound, the “Urine revertants in excess of controls” value ([2]; CGP 4540 250 mg/kg oral, bacitracin 440 mg/kg, day 2, +S9) was 0 revertants per total 24 hour u, the “Urine revertants in excess of controls” value ([2]; CGP 4540 250 mg/kg oral, bacitracin 440 mg/kg, day 2, no S9) was 0 revertants per total 24 hour u and the “Urine revertants in excess of controls” value ([2]; CGP 4540 250 mg/kg oral, erythromycin base 100 mg/kg, day 1, +S9) was 0 revertants per total 24 hour u. The “Urine revertants in excess of controls” value ([2]; CGP 4540 250 mg/kg oral, erythromycin base 100 mg/kg, day 1, no S9) was 0 revertants per total 24 hour u, the “Urine revertants in excess of controls” value ([2]; CGP 4540 250 mg/kg oral, erythromycin base 100 mg/kg, day 2, +S9) was 0 revertants per total 24 hour u and the “Urine revertants in excess of controls” value ([2]; CGP 4540 250 mg/kg oral, erythromycin base 100 mg/kg, day 2, no S9) was 0 revertants per total 24 hour u. For the same compound, the “Urine revertants in excess of controls” value ([2]; CGP 4540 250 mg/kg oral, no pretreatment, day 1, +S9) was 541 revertants per total 24 hour u, the “Urine revertants in excess of controls” value ([2]; CGP 4540 250 mg/kg oral, no pretreatment, day 1, no S9) was 120 revertants per total 24 hour u and the “Urine revertants in excess of controls” value ([2]; CGP 4540 250 mg/kg oral, no pretreatment, day 2, +S9) was 89 revertants per total 24 hour u. The “Urine revertants in excess of controls” value ([2]; CGP 4540 250 mg/kg oral, no pretreatment, day 2, no S9) was 32 revertants per total 24 hour u, the “Urine revertants in excess of controls” value ([2]; CGP 4540 250 mg/kg oral, succinylsulfathiazole 1 g/kg + bacitracin 220 mg/kg, day 1, +S9) was 0 revertants per total 24 hour u and the “Urine revertants in excess of controls” value ([2]; CGP 4540 250 mg/kg oral, succinylsulfathiazole 1 g/kg + bacitracin 220 mg/kg, day 1, no S9) was 0 revertants per total 24 hour u. The “Urine revertants in excess of controls” value ([2]; CGP 4540 250 mg/kg oral, succinylsulfathiazole 1 g/kg + bacitracin 220 mg/kg, day 2, +S9) was 0 revertants per total 24 hour u, the “Urine revertants in excess of controls” value ([2]; CGP 4540 250 mg/kg oral, succinylsulfathiazole 1 g/kg + bacitracin 220 mg/kg, day 2, no S9) was 0 revertants per total 24 hour u and the “Urine revertants in excess of controls” value ([2]; CGP 4540 250 mg/kg oral, succinylsulfathiazole 1 g/kg, day 1, +S9) was 269 revertants per total 24 hour u. The “Urine revertants in excess of controls” value ([2]; CGP 4540 250 mg/kg oral, succinylsulfathiazole 1 g/kg, day 1, no S9) was 73 revertants per total 24 hour u, the “Urine revertants in excess of controls” value ([2]; CGP 4540 250 mg/kg oral, succinylsulfathiazole 1 g/kg, day 2, +S9) was 30 revertants per total 24 hour u and the “Urine revertants in excess of controls” value ([2]; CGP 4540 250 mg/kg oral, succinylsulfathiazole 1 g/kg, day 2, no S9) was 7 revertants per total 24 hour u. The Mutagenic urinary metabolite [2, 9] was “very marked decrease”, the “Reduction in number of worms” value ([3]; CGP 4540 10 mg/kg single dose, no antibiotic, 196 mice) was 99% and the “Mice with parasitological cures” value [3, 10] was 96%. For the same compound, the “Mice with parasitological cures” value [3, 11] was 88%, the “Reduction in no. of worms” value [3, 11] was 98% and the “Mice with parasitological cures” value [3, 12] was 100%. For the same compound, the “Mice with parasitological cures” value [3, 13] was 92%, the “Reduction in no. of worms” value [3, 13] was 99% and the “Mice with parasitological cures” value [3, 14] was 100%. The “Reduction in number of worms” value [3, 14] was 100%, the “Mice with parasitological cures” value [3, 15] was 100% and the “Mice with parasitological cures” value [3, 16] was 100%. For the same compound, the “Reduction in number of worms” value [3, 16] was 100%, the “Mice with parasitological cures” value [3, 17] was 100% and the “Reduction in no. of worms” value [3, 17] was 100%. For the same compound, the “Mice with parasitological cures” value [3, 18] was 100%, the “Reduction in no. of worms” value [3, 18] was 100% and the “Mice with parasitological cures” value [3, 19] was 100%. For the same compound, the “Reduction in no. of worms” value [3, 19] was 100%, the “Curative antischistosomal activity after preceding antibiotic treatment” value ([3]; erythromycin base or erythromycylamine) was “not reduced” and the “Effectiveness against schistosomiasis, oral vs intramuscular” value ([3]; formulated CGP 4540, oral and intramuscular) was “about equally effective”. The “Antischistosomal activity after reduction of bacterial flora” value ([3]; succinylsulfathiazole 1 g/kg once daily for 3 days, oral) was “do not appear to affect the antischistosomal activity”, the “Mutagenic activity after incubation of urines with β-glucuronidase” value ([4]; 3 hrs at 37° C., conventional rats) was “No further increase in mutagenic activity” and the “Revertants in excess of controls excreted in 24 hrs” value (“Revertants in excess … in 24 hrs” for short) ([4]; conventional rats, urine 0-24 hrs, +S9, 250 mg/kg) was 4,900 revertants excreted in 24 hrs and 5,000 revertants excreted in 24 hrs. The “Revertants in excess … in 24 hrs” value ([4]; conventional rats, urine 0-24 hrs, -S9, 250 mg/kg) was 3,800 revertants excreted in 24 hrs and 3,750 revertants excreted in 24 hrs, the “Revertants in excess … in 24 hrs” value ([4]; conventional rats, urine 24-48 hrs, +S9, 250 mg/kg) was 2,800 revertants excreted in 24 hrs and 3,050 revertants excreted in 24 hrs and the “Revertants in excess … in 24 hrs” value ([4]; conventional rats, urine 24-48 hrs, -S9, 250 mg/kg) was 1,600 revertants excreted in 24 hrs and 1,200 revertants excreted in 24 hrs. For the same compound, the “Revertants in excess … in 24 hrs” value ([4]; germ-free rats, urine 0-24 hrs, +S9) was 0 revertants excreted in 24 hrs, the “Revertants in excess … in 24 hrs” value ([4]; germ-free rats, urine 0-24 hrs, -S9) was 0 revertants excreted in 24 hrs and the “Revertants in excess … in 24 hrs” value ([4]; germ-free rats, urine 24-48 hrs, +S9) was 0 revertants excreted in 24 hrs. For the same compound, the “Revertants in excess … in 24 hrs” value ([4]; germ-free rats, urine 24-48 hrs, -S9) was 0 revertants excreted in 24 hrs, the “Urinary mutagenic metabolite in germ-free rats” value ([4]; urines of germ-free rats (1) and (2)) was “no mutagenic metabolite was detectable” and the “Lesions in bile ducts and liver” value ([5]; 500 mg/kg (50 times the curative dose)) was “some destructive lesions may be produced in the bile ducts and the liver”. The “Lesions in bile ducts and liver with antibacterial agent” value ([5]; 500 mg/kg, co-administration of erythromycin) was “these lesions are prevented”, the “Spot with Rf similar to isolated mutagenic metabolite in urine extract” value ([6]; conventional rats, 250 mg/kg oral, urine 0 to 24 hours) was “recognizable” and the “Spot with Rf similar to isolated mutagenic metabolite in urine extract” value ([6]; germ-free rats) was “No such spot appeared”. For the same compound, the “Mice with parasitological cures” value [7, 10] was 95%, the “Mice with parasitological cures” value [7, 20] was 100% and the “Reduction in number of worms” value [7, 20] was 100%. For the same compound, the “Reduction in number of worms” value [7, 12] was 100%, the “Reduction in number of worms” value [7, 15] was 100% and the “Schistosomicidal activity of single low doses with or without antibacterial agents” value ([7]; single low doses, with vs without antibacterial agents) was “nearly or equally as effective”. For the same compound, the “Mutagenic activity in the host mediated assay” value ([8]; in vivo, po) was “no mutagenic activity was detectable” and the “Mutant colonies found in the host-mediated assay” value [8, 9] was “very marked decrease”.
